Several values for one entry are separate records, joined by “and”; a condition that tells them apart may be missing. Equal values may be shown once. Toxic doses and inconclusive results are not listed.

Here are results for 16 compounds from PubChem BioAssay AID328 (DTP/NCI, 2004).

This test concerns BDF1 mice, P388 leukemia ip, median survival T/C. Put plainly: NCI In Vivo Anticancer Drug Screen. Data for tumor model P388 Leukemia (intraperitoneal) in B6D2F1 (BDF1) mice. Particulars: endpoint: median survival time, higher = longer survival. In short, it runs like this:
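Transplantable tumour in mice; compound vs vehicle dosing; survival scored; ratio of treated to control reported.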

The mark [1] stands for this setting: dose: 50.0 mg/kg/injection, schedule: Q01DX009 (ip), vehicle: saline with Tween-80.
[2] abbreviates: dose: 100.0 mg/kg/injection, schedule: Q01DX009 (ip), vehicle: saline with Tween-80.
Where [3] appears, read: dose: 100.0 mg/kg/injection, schedule: Q04DX003 (ip), vehicle: saline with Tween-80.
Setting [4] is: dose: 12.5 mg/kg/injection, schedule: Q01DX009 (ip), vehicle: saline with Tween-80.
[5] abbreviates: dose: 25.0 mg/kg/injection, schedule: Q01DX009 (ip), vehicle: saline with Tween-80.
The mark [6] stands for this setting: dose: 100.0 mg/kg/injection, schedule: Q01DX009 (ip), vehicle: saline.
Where [7] appears, read: dose: 200.0 mg/kg/injection, schedule: Q01DX009 (ip), vehicle: saline.
Where [8] appears, read: dose: 100.0 mg/kg/injection, schedule: Q01DX009 (ip), vehicle: Klucel (hydroxypropylcellulose) (HPC).
Where [9] appears, read: dose: 200.0 mg/kg/injection, schedule: Q01DX009 (ip), vehicle: Klucel (hydroxypropylcellulose) (HPC).
[10] abbreviates: dose: 400.0 mg/kg/injection, schedule: Q01DX009 (ip), vehicle: Klucel (hydroxypropylcellulose) (HPC).
Where [11] appears, read: dose: 50.0 mg/kg/injection, schedule: Q01DX005 (ip), vehicle: Klucel (hydroxypropylcellulose) (HPC).

`CC(C)CC1NC(=O)C(Cc2ccc(OCc3ccccc3)cc2)NC1=O` (stereo not drawn): the T/C is 95 % of control (dose: 40.0 mg/kg/injection, schedule: Q04DX003 (ip), vehicle: saline with Tween-80); 101 % of control under setting [1]; 91 % of control (dose: 66.0 mg/kg/injection, schedule: Q04DX003 (ip), vehicle: saline with Tween-80); 95 % of control under setting [2]; 87 % of control under setting [3]; 95 % of control (dose: 166.0 mg/kg/injection, schedule: Q04DX003 (ip), vehicle: saline with Tween-80). Besides, the T/C by setting is: (dose: 200.0 mg/kg/injection, schedule: Q01DX009 (ip), vehicle: saline with Tween-80) 93 % of control; (dose: 200.0 mg/kg/injection, schedule: Q04DX003 (ip), vehicle: saline with Tween-80) 111 % of control; (dose: 276.0 mg/kg/injection, schedule: Q04DX003 (ip), vehicle: saline with Tween-80) 91 % of control; (dose: 400.0 mg/kg/injection, schedule: Q01DX009 (ip), vehicle: saline with Tween-80) 96 % of control; (dose: 400.0 mg/kg/injection, schedule: Q04DX003 (ip), vehicle: saline with Tween-80) 111 % of control.
Turning to `COc1ccc(S(=O)(=O)NCCC#N)cc1NC(C)=O`, the T/C is 100 % of control (dose: 100.0 mg/kg/injection, schedule: Q01DX001 (ip), vehicle: saline sonified); 100 % of control (dose: 200.0 mg/kg/injection, schedule: Q01DX001 (ip), vehicle: saline sonified); 100 % of control (dose: 400.0 mg/kg/injection, schedule: Q01DX001 (ip), vehicle: saline sonified).
Regarding `CC(=O)/C=C/c1ccc([N+](=O)[O-])cc1`, the T/C reads like this: (dose: 100.0 mg/kg/injection, schedule: Q04DX003 (ip), vehicle: saline sonified) 90 % of control; (dose: 200.0 mg/kg/injection, schedule: Q04DX003 (ip), vehicle: saline sonified) 90 % of control; (dose: 400.0 mg/kg/injection, schedule: Q04DX003 (ip), vehicle: saline sonified) 100 % of control.
For the compound `Cc1cc(C(C)(C)CC(C)(C)C)cc(O)c1O`, the T/C by setting is: (dose: 100.0 mg/kg/injection, schedule: Q04DX003 (ip), vehicle: other) 113 % of control; (dose: 200.0 mg/kg/injection, schedule: Q04DX003 (ip), vehicle: other) 109 % of control; (dose: 400.0 mg/kg/injection, schedule: Q04DX003 (ip), vehicle: other) 100 % of control.
On to `CCCCCCCCCCCCCCCC(=O)N(CCCN)C(C)CCCN(CC)CC` (stereo not drawn), for which the T/C is 106 % of control under setting [4]; 99 % of control under setting [5]; 107 % of control (dose: 50.0 mg/kg/injection, schedule: Q04DX003 (ip), vehicle: saline with Tween-80); 93 % of control under setting [3].
As to `NC(=O)SCC(N)C(=O)O` (stereo not drawn), the T/C is 115 % of control (dose: 50.0 mg/kg/injection, schedule: Q01DX009 (ip), vehicle: saline); 115 % of control under setting [6]; 118 % of control under setting [7].
On to `O=C1C(OC(=O)c2ccccc2)=C(c2ccc(O)cc2)C(=O)C(OC(=O)c2ccccc2)=C1c1ccc(O)cc1`, for which the T/C runs as follows: under setting [8], 100 % of control; under setting [9], 100 % of control; under setting [10], 92 % of control.
For `CCCCCC(CN(C)C)C(=O)/C=C/c1cccc(O)c1` (stereo not drawn), the T/C under setting [1] is 106 % of control and the T/C under setting [2] is 98 % of control.
As to `COc1ccc(C(=O)c2cc(OC)c(OC)c(OC)c2)cc1OC`, the T/C is 92 % of control under setting [8]; 109 % of control under setting [6]; 95 % of control (dose: 100.0 mg/kg/injection, schedule: Q04DX003 (ip), vehicle: Klucel (hydroxypropylcellulose) (HPC)); 107 % of control under setting [9]; 113 % of control under setting [7]; 104 % of control (dose: 200.0 mg/kg/injection, schedule: Q04DX003 (ip), vehicle: Klucel (hydroxypropylcellulose) (HPC)). In addition, the T/C was 107 % of control under setting [10]; 122 % of control (dose: 400.0 mg/kg/injection, schedule: Q01DX009 (ip), vehicle: saline); 95 % of control (dose: 400.0 mg/kg/injection, schedule: Q04DX003 (ip), vehicle: Klucel (hydroxypropylcellulose) (HPC)).
For `O=C(Nc1cc(Cl)ccc1Cl)O/N=C/c1ccncc1`, the T/C reads like this: under setting [4], 106 % of control; under setting [5], 90 % of control; under setting [1], 96 % of control.
Take `COc1cc(N)c2ncsc2c1[N+](=O)[O-]`: the T/C (dose: 50.0 mg/kg/injection, schedule: Q01DX009 (ip), vehicle: Klucel (hydroxypropylcellulose) (HPC)) was 89 % of control; the T/C under setting [8] is 105 % of control; the T/C under setting [9] was 106 % of control.
Turning to `COc1c2c(cc3oc4ccccc4c(=O)c13)CCCC2=O`, the T/C under setting [11] was 90 % of control and the T/C (dose: 200.0 mg/kg/injection, schedule: Q01DX005 (ip), vehicle: Klucel (hydroxypropylcellulose) (HPC)) was 88 % of control.
With `COc1cccc2c1C(=O)c1c(O)c3c(c(O)c1C2=O)C[C@@](O)(C(=O)CO)C[C@@H]3OC1CC(NC(=O)CN)C(O)C(C)O1` (stereo partly drawn), the T/C (dose: 1.56 mg/kg/injection, schedule: Q01DX009 (ip), vehicle: other) was 108 % of control; the T/C (dose: 3.13 mg/kg/injection, schedule: Q01DX009 (ip), vehicle: other) is 110 % of control; the T/C (dose: 6.25 mg/kg/injection, schedule: Q01DX009 (ip), vehicle: other) was 105 % of control; the T/C (dose: 12.5 mg/kg/injection, schedule: Q01DX009 (ip), vehicle: other) was 99 % of control; the T/C (dose: 25.0 mg/kg/injection, schedule: Q01DX009 (ip), vehicle: other) was 114 % of control.
As to `Nc1ccn(C2OC(CO)C(O)C2O)c(=O)n1` (stereo not drawn), the T/C (dose: 5.0 mg/kg/injection, schedule: Q01DX010 (ip), vehicle: saline) is 190 % of control; the T/C (dose: 13.0 mg/kg/injection, schedule: Q03HX024 (ip), vehicle: saline) is 300 % of control; the T/C (dose: 16.0 mg/kg/injection, schedule: Q01DX005 (ip), vehicle: saline) was 170 % of control; the T/C under setting [11] is 150 % of control; the T/C (dose: 60.0 mg/kg/injection, schedule: Q01DX010 (ip), vehicle: water) was 90 % of control and 110 % of control; the T/C (dose: 80.0 mg/kg/injection, schedule: Q01DX009 (ip), vehicle: water) was 86 % of control. Also, the T/C is, setting by setting: (dose: 80.0 mg/kg/injection, schedule: Q01DX010 (ip), vehicle: water) 90 % of control; under setting [6], 100 % of control; (dose: 100.0 mg/kg/injection, schedule: Q01DX009 (ip), vehicle: water) 86 % of control and 90 % of control; (dose: 100.0 mg/kg/injection, schedule: Q01DX010 (ip), vehicle: water) 90 % of control; (dose: 160.0 mg/kg/injection, schedule: Q01DX010 (ip), vehicle: saline) 100 % of control; (dose: 200.0 mg/kg/injection, schedule: Q01DX001 (ip), vehicle: saline) 100 % of control. Besides, the T/C is, setting by setting: under setting [7], 91 % of control and 110 % of control; (dose: 256.0 mg/kg/injection, schedule: Q01DX005 (ip), vehicle: saline) 96 % of control; (dose: 1500.0 mg/kg/injection, schedule: Q04DX003 (ip), vehicle: water) 200 % of control.
As for `C[N+](C)(C)c1ccc2ccccc2n1`, the T/C is, setting by setting: (dose: 3.12 mg/kg/injection, schedule: Q01DX001 (ip), vehicle: Klucel (hydroxypropylcellulose) (HPC)) 122 % of control; (dose: 6.25 mg/kg/injection, schedule: Q01DX001 (ip), vehicle: Klucel (hydroxypropylcellulose) (HPC)) 110 % of control; (dose: 12.5 mg/kg/injection, schedule: Q01DX001 (ip), vehicle: Klucel (hydroxypropylcellulose) (HPC)) 122 % of control; (dose: 18.5 mg/kg/injection, schedule: Q01DX001 (ip), vehicle: Klucel (hydroxypropylcellulose) (HPC)) 112 % of control; (dose: 25.0 mg/kg/injection, schedule: Q01DX001 (ip), vehicle: saline) 120 % of control; (dose: 50.0 mg/kg/injection, schedule: Q01DX001 (ip), vehicle: saline) 118 % of control.
For `O=c1c(N=Nc2ccccc2)c(O)n(-c2ccccc2)c(=S)n1-c1ccccc1`, the T/C was 100 % of control (dose: 25.0 mg/kg/injection, schedule: Q01DX001 (ip), vehicle: saline with Tween-80); 90 % of control (dose: 50.0 mg/kg/injection, schedule: Q01DX001 (ip), vehicle: saline with Tween-80); 95 % of control (dose: 100.0 mg/kg/injection, schedule: Q01DX001 (ip), vehicle: saline with Tween-80).
